According to US11566007B2, “Ras inhibitors” (Revolution Medicines, Inc., priority 2019, dated 2023):
Several values for one entry are separate records, joined by “and”; a condition that tells them apart may be missing. Identical values can stand only once. Like-named read-outs stand apart in the source and are kept apart here.

Key:
KRAS G12S = KRAS G12S (Homo sapiens (Human), UniProt P01116+P62937, G12S); test: Ras-Raf (BRAF RBD) disruption / FRET / MOA assay, KRAS G12S; type: biochemical; conditions: Ras-Raf disruption/FRET/MOA assay; class symbols; read-out: KRAS G12S FRET data IC50
KRAS G12S, sequence (P01116-2 other isoform, or with tags, fused parts or gaps G12S): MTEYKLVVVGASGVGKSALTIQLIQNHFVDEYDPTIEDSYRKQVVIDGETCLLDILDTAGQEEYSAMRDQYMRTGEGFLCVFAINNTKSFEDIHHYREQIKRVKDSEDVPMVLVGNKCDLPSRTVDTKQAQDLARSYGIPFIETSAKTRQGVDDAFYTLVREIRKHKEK
KRAS G12S, sequence (P62937 whole entry): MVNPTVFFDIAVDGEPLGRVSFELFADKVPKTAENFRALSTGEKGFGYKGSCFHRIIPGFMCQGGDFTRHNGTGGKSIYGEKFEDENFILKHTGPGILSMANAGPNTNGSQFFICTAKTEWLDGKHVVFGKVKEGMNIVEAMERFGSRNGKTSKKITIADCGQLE
Method in brief: (§1)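 Ternary complex formation (Ras–compound–cyclophilin A) displacing BRAF RBD, monitored by TR-FRET. Three hours at 25° C with compound (top 30 μM final), then 1.5 h with the labelled antibodies. Lower ratio than DMSO indicates disruption; IC50 reported.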

K-Ras G13C = K-Ras G13C (Homo sapiens (Human), UniProt P01116+P62937, G13C); test: Ras-Raf (BRAF RBD) disruption / FRET / MOA assay, KRAS G13C; type: biochemical
K-Ras G13C, sequence (P01116-2 other isoform, or with tags, fused parts or gaps G13C): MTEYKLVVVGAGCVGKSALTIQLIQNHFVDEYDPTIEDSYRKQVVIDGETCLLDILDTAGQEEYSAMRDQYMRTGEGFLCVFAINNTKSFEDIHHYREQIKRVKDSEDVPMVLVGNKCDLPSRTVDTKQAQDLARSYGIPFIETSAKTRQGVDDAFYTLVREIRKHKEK
K-Ras G13C, sequence (P62937 whole entry): as the sequence (P62937 whole entry) above
Method in brief: as §1

K-Ras G12C = K-Ras G12C (Homo sapiens (Human), UniProt P01116+P62937, G12C); test: Ras-Raf (BRAF RBD) disruption / FRET / MOA assay, KRAS G12C; type: biochemical
K-Ras G12C, sequence (P01116-2 other isoform, or with tags, fused parts or gaps G12C): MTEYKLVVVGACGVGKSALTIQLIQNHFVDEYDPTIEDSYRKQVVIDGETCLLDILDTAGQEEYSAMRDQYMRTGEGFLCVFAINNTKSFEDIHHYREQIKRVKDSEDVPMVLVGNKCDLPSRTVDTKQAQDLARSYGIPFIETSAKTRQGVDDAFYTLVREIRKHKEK
K-Ras G12C, sequence (P62937 whole entry): as the sequence (P62937 whole entry) above
Method in brief: as §1

KRAS G12V = KRAS G12V (Homo sapiens (Human), UniProt P01116+P62937, G12V); test: Ras-Raf (BRAF RBD) disruption / FRET / MOA assay, KRAS G12V; type: biochemical; conditions: read-out: IC50* KRAS G12V FRET data
KRAS G12V, sequence (P01116-2 other isoform, or with tags, fused parts or gaps G12V): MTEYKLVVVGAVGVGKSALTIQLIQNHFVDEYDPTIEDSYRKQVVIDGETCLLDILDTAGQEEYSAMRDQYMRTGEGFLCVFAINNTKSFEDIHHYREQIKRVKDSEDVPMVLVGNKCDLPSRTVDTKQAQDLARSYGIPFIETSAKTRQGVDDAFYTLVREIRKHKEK
KRAS G12V, sequence (P62937 whole entry): as the sequence (P62937 whole entry) above
Method in brief: as §1

KRAS G12D = KRAS G12D (Homo sapiens (Human), UniProt P01116+P62937, G12D); test: Ras-Raf (BRAF RBD) disruption / FRET / MOA assay, KRAS G12D; type: biochemical; conditions: Ras-Raf disruption/FRET/MOA assay; class symbols; read-out: KRAS G12D FRET data IC50
KRAS G12D, sequence (P01116-2 other isoform, or with tags, fused parts or gaps G12D): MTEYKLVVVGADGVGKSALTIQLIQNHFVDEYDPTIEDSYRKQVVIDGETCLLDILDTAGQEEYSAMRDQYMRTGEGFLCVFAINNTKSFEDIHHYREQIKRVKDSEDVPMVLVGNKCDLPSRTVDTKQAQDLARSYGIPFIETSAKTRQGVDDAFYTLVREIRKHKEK
KRAS G12D, sequence (P62937 whole entry): as the sequence (P62937 whole entry) above
Method in brief: as §1

NRAS G12C = NRAS G12C (Homo sapiens (Human), UniProt P01111+P62937, G12C); test: Ras-Raf (BRAF RBD) disruption / FRET / MOA assay, NRAS G12C; type: biochemical; conditions: read-out: IC50* NRAS G12C FRET data
NRAS G12C, sequence (P01111 whole entry G12C): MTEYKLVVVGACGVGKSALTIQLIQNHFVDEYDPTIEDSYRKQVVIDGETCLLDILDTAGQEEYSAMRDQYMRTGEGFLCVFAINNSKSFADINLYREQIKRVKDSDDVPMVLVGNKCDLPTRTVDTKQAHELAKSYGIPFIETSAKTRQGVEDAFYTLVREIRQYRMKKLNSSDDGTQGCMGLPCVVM
NRAS G12C, sequence (P62937 whole entry): as the sequence (P62937 whole entry) above
Method in brief: as §1

[1] = tested on: NCI-H358 cells (K-Ras G12C); test: Potency assay: pERK in NCI-H358 cells; type: cell-based, human; conditions: Homo sapiens
Method in brief: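 Compounds are dosed as ten 3-fold dilutions from a 10 mM DMSO stock, in duplicate, and left on cells for 4 h at 37 °C, 5% CO2. Phospho-ERK1/2 is then quantified by AlphaLISA SureFire Ultra or In-Cell Western, and IC50 is derived from a 4-parameter sigmoid against log concentration.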

KRAS WT = KRAS WT (Homo sapiens (Human), UniProt P01116+P62937); test: Ras-Raf (BRAF RBD) disruption / FRET / MOA assay, KRAS WT; type: biochemical; conditions: read-out: IC50* KRAS WT FRET data
KRAS WT, sequence (P01116-2 other isoform, or with tags, fused parts or gaps): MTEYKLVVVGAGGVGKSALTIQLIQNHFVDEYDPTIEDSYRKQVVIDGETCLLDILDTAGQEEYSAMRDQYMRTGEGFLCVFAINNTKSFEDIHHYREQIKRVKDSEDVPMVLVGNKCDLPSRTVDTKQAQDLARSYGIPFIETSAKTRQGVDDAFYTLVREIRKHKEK
KRAS WT, sequence (P62937 whole entry): as the sequence (P62937 whole entry) above
Method in brief: as §1

NCI-H358 (K-Ras G12C) = test: CellTiter-Glo cell viability assay, NCI-H358; type: cell-based, human; conditions: Homo sapiens, NCI-H358, 120 h, NCI-H358, 5-day treatment
Method in brief: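 Luminescent viability readout on day 5 after direct compound addition to plated cells; plates sat ~30 min at room temperature before reading. Values expressed as percent of mean DMSO signal, curves fit with a four-parameter logistic model.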

KRAS G13D = KRAS G13D (Homo sapiens (Human), UniProt P01116+P62937, G13D); test: Ras-Raf (BRAF RBD) disruption / FRET / MOA assay, KRAS G13D; type: biochemical; conditions: read-out: IC50* KRAS G13D FRET data
KRAS G13D, sequence (P01116-2 other isoform, or with tags, fused parts or gaps G13D): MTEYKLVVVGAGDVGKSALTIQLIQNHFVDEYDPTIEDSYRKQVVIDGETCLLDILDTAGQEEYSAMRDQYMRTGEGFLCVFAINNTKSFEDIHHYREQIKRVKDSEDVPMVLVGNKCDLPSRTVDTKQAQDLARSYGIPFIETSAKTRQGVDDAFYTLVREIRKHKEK
KRAS G13D, sequence (P62937 whole entry): as the sequence (P62937 whole entry) above
Method in brief: as §1

[2] = KRAS G13C, Ras-Raf disruption/FRET/MOA assay, read-out: IC50* KRAS G13C FRET data
[3] = KRAS G12C, Ras-Raf disruption/FRET/MOA assay, read-out: IC50* KRAS G12C FRET data
[4] = NCI-H358, H358 KRAS G12C, read-out: pERK EC50
[5] = class symbols, read-out: Additional H358 Cell Viability assay data (K-Ras G12C, IC50)

| IC50 (K-Ras G13C; with Cyclophilin A, BRAF RBD, read-out: FRET (K-Ras G13C) IC50) [nM] | IC50 (K-Ras G12C; with Cyclophilin A, BRAF RBD, read-out: FRET (K-Ras G12C) IC50) [nM] | EC50 ([1]; NCI-H358 cells, 4 hours, read-out: H358 pERK (K-Ras G12C) EC50) [nM] | IC50 (NCI-H358 (K-Ras G12C); read-out: H358 Cell Viability (K-Ras G12C) IC50) [nM] | SMILES | IC50 (KRAS G12S) | IC50 (K-Ras G13C; [2]) | IC50 (K-Ras G12C; [3]) | IC50 (KRAS G12V) | IC50 (KRAS G12D) | IC50 (NRAS G12C) | EC50 [1, 4] [nM] | IC50 (KRAS WT) | IC50 (NCI-H358 (K-Ras G12C); [5]) [nM] | IC50 (KRAS G13D) |
| --- | --- | --- | --- | --- | --- | --- | --- | --- | --- | --- | --- | --- | --- | --- |
|  |  |  |  | CCn1c(-c2cccnc2COC)c2c3cc(ccc31)-c1cc(O)cc(c1)C[C@H](NC(=O)[C@@H](C(C)C)N(C)C(=O)[C@H]1CCN(C(=O)C#CCN3CCOCC3)C1)C(=O)N1CCC[C@H](N1)C(=O)OCC(C)(C)C2 [Example A200] | > 10000 nM | 1000 to 10000 nM | 10 to 100 nM | > 10000 nM | > 10000 nM | 10 to 100 nM | < 5000 | > 10000 nM | 100 to 1000 | > 10000 nM |
| 7480 | 23 | 13 | 4 | CCn1c(-c2cncnc2)c2c3cc(ccc31)-c1cccc(c1)[C@@H](OC)[C@H](NC(=O)[C@H](C(C)C)N(C)C(=O)[C@H]1CCN(C(=O)C#CCN3CCOCC3)C1)C(=O)N1CCC[C@H](N1)C(=O)OCC(C)(C)C2 [Example A208] | > 10000 nM | > 10000 nM | 100 to 1000 nM | > 10000 nM | > 10000 nM | 1000 to 10000 nM | < 5000 | > 10000 nM | > 1000 | > 10000 nM |
|  |  |  |  | CCn1c(-c2ccccc2CN(C)C)c2c3cc(ccc31)-c1cc(O)cc(c1)C[C@H](NC(=O)[C@H](C(C)C)N(C)Cc1ccc(NC(=O)/C=C/CN(C)C)cn1)C(=O)N1CCC[C@H](N1)C(=O)OCC(C)(C)C2 [Example A213] | 1000 to 10000 nM and > 10000 nM | 100 to 1000 nM and 1000 to 10000 nM | 100 to 1000 nM and > 10000 nM | 1000 to 10000 nM and > 10000 nM | 1000 to 10000 nM and > 10000 nM | 1000 to 10000 nM and > 10000 nM | < 5000 | 1000 to 10000 nM and > 10000 nM | > 1000 | 1000 to 10000 nM and > 10000 nM |
|  |  |  |  | C=CC(=O)N1CC[C@H](C(=O)N(C)c2ccccc2C(=O)N[C@H]2Cc3cc(O)cc(c3)-c3ccc4c(c3)c(c(-c3cnccc3COC)n4CC)CC(C)(C)COC(=O)[C@@H]3CCCN(N3)C2=O)C1 [Example A228] | > 10000 nM | > 10000 nM | 1000 to 10000 nM | > 10000 nM | > 10000 nM | 1000 to 10000 nM | < 5000 | > 10000 nM | > 1000 | > 10000 nM |
|  |  |  |  | C=CC(=O)N1CC(OC[C@H](C(=O)N[C@H]2Cc3cc(O)cc(c3)-c3ccc4c(c3)c(c(-c3cccnc3COC)n4CC)CC(C)(C)COC(=O)[C@@H]3CCCN(N3)C2=O)C(C)C)C1 [Example A232] | > 10000 nM | 100 to 1000 nM | 100 to 1000 nM | 1000 to 10000 nM | > 10000 nM | 100 to 1000 nM | < 5000 | 1000 to 10000 nM | 10 to 100 | 1000 to 10000 nM |
|  |  |  |  | CCn1c(-c2cccnc2COC)c2c3cc(ccc31)-c1cc(O)cc(c1)C[C@H](NC(=O)[C@H](C(C)C)N(C)C(=O)[C@H]1CCN(C(=O)C#CCN3[C@H](C)COC[C@@H]3C)C1)C(=O)N1CCC[C@H](N1)C(=O)OCC(C)(C)C2 [Example A237] | 100 to 1000 nM | 100 to 1000 nM | 10 to 100 nM | 100 to 1000 nM | 1000 to 10000 nM | 10 to 100 nM | < 5000 | 1000 to 10000 nM | < 10 | 1000 to 10000 nM |
|  |  |  |  | CCn1c(-c2cccnc2COC)c2c3cc(ccc31)-c1cc(O)cc(c1)C[C@H](NC(=O)[C@H](C(C)C)N(C)C(=O)[C@H]1CCN(C(=O)C#CC3(N(C)C)CC3)C1)C(=O)N1CCC[C@H](N1)C(=O)OCC(C)(C)C2 [Example A238] | 1000 to 10000 nM | 100 to 1000 nM | 10 to 100 nM | 100 to 1000 nM | > 10000 nM | 100 to 1000 nM | < 5000 | 1000 to 10000 nM | 10 to 100 | 1000 to 10000 nM |
